From US12728147B2, “Composition for preventing or treating inflammatory disease comprising hydrolysis extract of pulsatilla koreana and anemone raddeana as active ingredient” (priority 2020, dated 2026)
Read-outs that look alike come from different tables or passages of the source.

Key:
[1] = system: human umbilical vein endothelial cells (HUVECs); conditions: cited from earlier work
[2] = system: rats with edema induced with carrageenan; assay type: in vivo; conditions: for Average edema reduction percent: average of the reduction percent values after 2, 3 and 4 hours
Description: Each experimental group was composed of three Wistar rats, and the edema was formed by subplantar injection of 0.1 ml of a 1% (w/v) lambda carrageenan solution to the left hind paw of the rats. By the same method, 0.1 ml of physiological saline was injected into the right hind paw. […] For the control, 2 ml of physiological saline was used. As for Comparative Example 1, the group was orally administered with 10 mg/kg indomethacin. The medicinal effect was assayed as percentage (%) by measuring the volume of edema from 2 hours to 4 hours in 1 hour units after carrageenan administration. [{1−S/C}×100] (S: edema volume in the preparation administration group, C: edema volume in the carrageenan administration group) The volume of edema was measured by water plethysmography. As for Preparation 16, the anti-inflammatory effect was observed by direct injection of […] into the point of carrageenan injection on the rats. This method was used considering that in the vertebral skeletal diseases, drugs are often directly injected into affected areas in clinical practice, and the method can also be applied to the herbal acupuncture in oriental medicine. In the present invention, 0.2 ml of Preparation 14 was selected and directly injected twice at an interval of 30 minutes to the point of carrageenan injection on the left hind paw of the rats (Comparative Example 6). That is, the injection was conducted at 150 minutes and 180 minutes after carrageenan injection, and the anti-inflammatory assay was conducted 240 minutes (4 hours after carrageenan injection). Comparative Example 2 was a Preparation of 1 mg of HcolA1 mixed with 1 mg of HcolA. The control was used for a physiological saline administration group.
The edema size reduction percent (%) was expressed as the ratio of the edema size by each preparation after each hour relative to the size of edema (control) by carrageenan injection after each hour as shown below, and the average reduction percent of edema was expressed as an average value of the reduction percent values of each preparation after 2, 3, or 4 hours. Edema size reduction percent (%)={1−(edema size by each preparation/edema size by control)}×100

[3] = system: carrageenan-induced rat paw inflammation; conditions: literature report; cited from earlier work

Compound: COC1C(=O)Oc2ccccc2C1(COC(=O)C=C(C)C)OC (centres unmarked) [4-senecioyloxymethyl-3,4-dimethoxycoumarin]
- Inhibition of HUVEC angiogenesis ([1]; at 1 μg/ml): 53%

Compound: COc1ccc2c(c1)c(CC(=O)O)c(C)n2C(=O)c1ccc(Cl)cc1 [Comparative Example 1, Indomethacin]
- Edema size reduction percent, 2 hours ([2]; 2 hours after carrageenan, relative to control): 0.012(63) %
- Edema size reduction percent, 3 hours ([2]; 3 hours after carrageenan, relative to control): 0.043(64) %
- Edema size reduction percent, 4 hours ([2]; 4 hours after carrageenan, relative to control (Comparative Example 6: direct injection into point of carrageenan injection)): 0.023(63) %
- Edema size over time (hour) after treatment, 4 hours ([2]; 4 hours after carrageenan, 1 ml i.p. 1 h before edema induction (Comparative Example 1 oral; Comparative Example 6: 0.2 ml injected directly twice at 150 and 180 min), mean): 0.321
- Average edema reduction percent [2]: (63.3) %
- Average edema reduction percent ([2]; listed as indomethacin): 63.3%

Compound: C[C@@H]1O[C@@H](O[C@H]2[C@H](O[C@H]3CC[C@]4(C)[C@H]5CC=C6[C@@H]7CC(C)(C)CC[C@]7(C(=O)O[C@@H]7O[C@H](CO[C@@H]8O[C@H](CO)[C@@H](O[C@@H]9O[C@@H](C)[C@H](O)[C@@H](O)[C@H]9O)[C@H](O)[C@H]8O)[C@@H](O)[C@H](O)[C@H]7O)CC[C@@]6(C)[C@]5(C)CC[C@H]4C3(C)C)OC[C@H](O[C@@H]3O[C@H](CO)[C@@H](O)[C@H](O)[C@H]3O)[C@@H]2O)[C@H](O)[C@H](O)[C@H]1O [HcolE, hederacolchiside E]
- Anti-inflammatory effect on carrageenan-induced rat paw inflammation [3]: insignificant

Compound: C[C@@H]1O[C@@H](O[C@H]2[C@H](O[C@H]3CC[C@@]4(C)[C@@H](CC[C@]5(C)[C@@H]4CC=C4[C@@H]6CC(C)(C)CC[C@]6(C(=O)O[C@@H]6O[C@H](CO[C@@H]7O[C@H](CO)[C@@H](O[C@@H]8O[C@@H](C)[C@H](O)[C@@H](O)[C@H]8O)[C@H](O)[C@H]7O)[C@@H](O)[C@H](O)[C@H]6O)CC[C@]45C)[C@]3(C)CO)OC[C@H](O[C@@H]3O[C@H](CO)[C@@H](O)[C@H](O)[C@H]3O)[C@@H]2O)[C@H](O)[C@H](O)[C@H]1O [HcolF, hederacolchiside F]
- Anti-inflammatory effect on carrageenan-induced rat paw inflammation [3]: confirmed in a predetermined range

Compound: CCC[C@H](CC/C=C/C=C/C#CC#C/C=C\CO)OC(C)=O [acetylbupleurotoxin]
- Inhibition of HUVEC angiogenesis ([1]; at a concentration of 30 μg/ml): 100%

Compound: CCC[C@H](O)CC/C=C/C=C/C#CC#C/C=C\CO [bupleurotoxin]
- Inhibition of HUVEC angiogenesis ([1]; at a concentration of 30 μg/ml): 100%

Compound: COc1cc([C@@H]2c3cc4c(cc3C[C@H]3COC(=O)[C@@H]32)OCO4)cc(OC)c1OC [deoxypodophyllotoxin]
- Inhibition of HUVEC angiogenesis ([1]; at a concentration of 3 ng/ml): 100%

Compound: C[C@@H]1O[C@@H](O[C@H]2[C@H](O[C@H]3CC[C@]4(C)[C@H]5CC=C6[C@@H]7CC(C)(C)CC[C@]7(C(=O)O)CC[C@@]6(C)[C@]5(C)CC[C@H]4C3(C)C)OC[C@H](O[C@@H]3O[C@H](CO)[C@@H](O)[C@H](O)[C@H]3O)[C@@H]2O)[C@H](O)[C@H](O)[C@H]1O [hederacolchiside A1]
- Inhibition of HUVEC angiogenesis ([1]; at a concentration of 2 μg/ml): 100%

Compound: C[C@@H]1O[C@@H](O[C@H]2[C@H](O[C@H]3CC[C@@]4(C)[C@@H](CC[C@]5(C)[C@@H]4CC=C4[C@@H]6CC(C)(C)CC[C@]6(C(=O)O)CC[C@]45C)[C@]3(C)CO)OC[C@H](O[C@@H]3O[C@H](CO)[C@@H](O)[C@H](O)[C@H]3O)[C@@H]2O)[C@H](O)[C@H](O)[C@H]1O [hederacolchiside A]
- Inhibition of HUVEC angiogenesis ([1]; at a concentration of 2 μg/ml): did not show such activity
